Measured values taken from patent US8642609B2, “Modulators of ATP-binding cassette transporters” (Vertex Pharmaceuticals Incorporated, priority 2003, dated 2014).

Biological target: T1, ΔF508-CFTR (Homo sapiens, UniProt P13569, DEL508-508)
T1 construct: expressed in transfected cells
Experiment: Membrane potential optical assay (FRET/VIPR), identification of correction compounds
Assay type: cell-based
How it was run: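 Corrector screen: FRET voltage-sensor dyes (CC2-DMPE donor, DiSBAC2(3)) report Cl^− efflux-driven depolarization after 10 μM forskolin and 20 μM genistein in Cl^−-free medium. Beforehand, ΔF508-CFTR NIH3T3 fibroblasts received compound for 16 hrs at 37° C; temperature-corrected cells (27° C) served as positive control.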

T1 sequence (P13569 with tags, fused parts or gaps DEL508-508): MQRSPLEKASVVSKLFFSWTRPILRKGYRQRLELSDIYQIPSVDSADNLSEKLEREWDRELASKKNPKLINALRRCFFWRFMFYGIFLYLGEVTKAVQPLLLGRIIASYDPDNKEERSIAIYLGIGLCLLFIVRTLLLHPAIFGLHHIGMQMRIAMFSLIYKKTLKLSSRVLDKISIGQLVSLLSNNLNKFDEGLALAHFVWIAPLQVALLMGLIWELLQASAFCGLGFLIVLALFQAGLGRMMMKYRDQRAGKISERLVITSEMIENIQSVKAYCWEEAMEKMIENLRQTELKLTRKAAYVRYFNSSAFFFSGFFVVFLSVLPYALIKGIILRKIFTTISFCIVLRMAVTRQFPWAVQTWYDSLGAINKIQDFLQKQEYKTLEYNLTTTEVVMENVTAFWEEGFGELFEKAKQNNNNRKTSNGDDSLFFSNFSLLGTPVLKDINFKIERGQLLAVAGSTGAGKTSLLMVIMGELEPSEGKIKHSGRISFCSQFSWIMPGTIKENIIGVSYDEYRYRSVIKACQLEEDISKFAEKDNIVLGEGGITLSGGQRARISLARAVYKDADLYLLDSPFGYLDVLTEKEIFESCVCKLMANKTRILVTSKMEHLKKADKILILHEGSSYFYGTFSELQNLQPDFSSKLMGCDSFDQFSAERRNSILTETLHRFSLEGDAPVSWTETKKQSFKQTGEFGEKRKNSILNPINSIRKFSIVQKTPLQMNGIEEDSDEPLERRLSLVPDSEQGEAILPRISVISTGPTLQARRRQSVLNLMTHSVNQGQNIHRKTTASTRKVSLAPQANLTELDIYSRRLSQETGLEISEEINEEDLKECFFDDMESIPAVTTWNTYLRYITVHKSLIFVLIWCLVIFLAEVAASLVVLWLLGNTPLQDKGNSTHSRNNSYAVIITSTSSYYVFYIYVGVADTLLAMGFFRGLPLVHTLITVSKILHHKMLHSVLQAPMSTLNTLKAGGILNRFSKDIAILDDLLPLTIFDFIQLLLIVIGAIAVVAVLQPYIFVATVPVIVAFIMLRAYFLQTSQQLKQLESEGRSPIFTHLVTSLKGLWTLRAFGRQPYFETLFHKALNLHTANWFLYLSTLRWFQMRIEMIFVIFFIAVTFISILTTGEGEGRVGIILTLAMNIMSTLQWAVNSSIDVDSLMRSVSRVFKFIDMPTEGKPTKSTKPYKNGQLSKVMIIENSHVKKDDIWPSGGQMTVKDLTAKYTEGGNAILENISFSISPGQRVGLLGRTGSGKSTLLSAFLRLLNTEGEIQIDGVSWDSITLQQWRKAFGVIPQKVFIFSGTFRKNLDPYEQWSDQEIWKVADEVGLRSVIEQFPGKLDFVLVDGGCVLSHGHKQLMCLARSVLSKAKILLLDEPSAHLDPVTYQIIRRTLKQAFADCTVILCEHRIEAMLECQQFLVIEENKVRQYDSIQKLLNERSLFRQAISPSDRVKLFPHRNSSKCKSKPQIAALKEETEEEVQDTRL

Row | Structure (SMILES) | EC50 [µM] | Emax (relative efficacy) [%] | % Efficacy (relative efficacy)
1 | COc1cc2nc(C(C)N3CCN(S(=O)(=O)c4ccc(Cl)cc4)CC3)n(C)c(=O)c2cc1OC (stereo not drawn) [compound 283] | 25 to 60 | 25 to 100 | –
2 | CC(c1nc2ccccc2c(=O)n1C)N1CCN(S(=O)(=O)c2ccc(-c3ccccn3)s2)CC1 (stereo not drawn) [compound 281] | 25 to 60 | < 25 | –
3 | CC(c1nc2ccccc2c(=O)n1C)N1CCCN(S(=O)(=O)c2ccc(Cl)cc2)CC1 (stereo not drawn) [compound 171] | 10 to 25 | 25 to 100 | –
4 | COc1ccc(C(=O)N2CCN(C(C)c3nc4cc(Cl)ccc4c(=O)n3C)CC2)cc1 (stereo not drawn) [compound 122] | 10 to 25 | < 25 | –
5 | COc1ccc(S(=O)(=O)N2CCN(C(C)c3nc(OC4CCCCC4)c4nccnc4n3)CC2)cc1 (stereo not drawn) [compound 396] | 10 to 25 | > 100 | –
6 | CC(NCCCN)c1nc2ccccc2c(=O)n1C (stereo not drawn) [compound 185] | 25 to 60 | < 25 | –
7 | CC(c1nc2cc(Cl)ccc2c(=O)n1C)N1CCN(S(=O)(=O)c2ccc(Cl)cc2)CC1 (stereo not drawn) [compound 94] | < 10 | 25 to 100 | –
8 | COc1ccc(S(=O)(=O)N2CCN(C(C)c3nc(N4CCCCC4C)c4ccccc4n3)CC2)cc1 (stereo not drawn) [compound 326] | < 10 | 25 to 100 | –
9 | Cc1cccc(C(=O)N2CCN(C(C)c3nc4ccccc4c(=O)n3C)CC2)c1 (stereo not drawn) [compound 57] | 25 to 60 | < 25 | –
10 | CCOC(=O)c1cnc(C(C)N2CCN(S(=O)(=O)c3ccc(OC)cc3)CC2)nc1OC1CCCC1 (stereo not drawn) [compound 362] | < 10 | > 100 | –
11 | CC(c1nc2ccccc2c(=O)n1C)N1CCN(C(=O)c2ccccc2)CC1 (stereo not drawn) [compound 52] | 10 to 25 | < 25 | –
12 | CC(c1nc2ccccc2c(=O)n1C)N1CCN(S(=O)(=O)c2ccc(-c3csnn3)s2)CC1 (stereo not drawn) [compound 280] | 10 to 25 | < 25 | –
13 | CCNc1nc(C(C)N2CCN(S(=O)(=O)c3ccc(OC)cc3)CC2)nc2ccccc12 (stereo not drawn) [compound 194] | 25 to 60 | 25 to 100 | –
14 | CC(c1nc2ccc(Cl)cc2c(=O)n1C)N1CCN(S(=O)(=O)c2ccc(C(F)(F)F)cc2)CC1 (stereo not drawn) [compound 73] | < 10 | 25 to 100 | –
15 | CC(c1nc2ccc(C#N)cc2c(=O)n1C)N1CCN(S(=O)(=O)c2ccc(Cl)cc2)CC1 (stereo not drawn) [compound 126] | 10 to 25 | 25 to 100 | –
16 | COc1ccc(S(=O)(=O)N2CCN(C(C)c3nc4ccc(-c5nnn[nH]5)cc4c(=O)n3C)CC2)cc1 (stereo not drawn) [compound 144] | 25 to 60 | 25 to 100 | –
17 | CC(c1nc(N2CCOCC2)c2ccccc2n1)N1CCN(S(=O)(=O)c2ccc(Cl)cc2)CC1 (stereo not drawn) [compound 236] | 25 to 60 | 25 to 100 | –
18 | CC(c1nc2ccccc2c(=O)n1C)N1CC2CC1CN2S(=O)(=O)c1ccc(Cl)cc1 (stereo not drawn) [compound 176] | 25 to 60 | 25 to 100 | –
19 | COc1ccc(S(=O)(=O)N2CCN(C(C)(C)c3nc4ccc(Cl)cc4c(=O)n3C)CC2)cc1 [compound 149] | < 10 | 25 to 100 | –
20 | Cn1c(CN2CCN(S(=O)(=O)c3ccc(Cl)cc3)CC2)nc2ccc(Cl)cc2c1=O [compound 67] | 10 to 25 | 25 to 100 | –
21 | CC(c1nc2ccc(Cl)cc2c(=O)n1C)N1CCN(C(=O)Nc2ccccc2Br)C(C)C1 (stereo not drawn) [compound 2] | 25 to 60 | 25 to 100 | –
22 | COc1ccc(S(=O)(=O)N2CCN(C(C)c3nc(OC4CCCC4)c4ccccc4n3)CC2)cc1 (stereo not drawn) [compound 397] | 10 to 25 | – | ++ (“++” means between 25% to 100%)
23 | CC(c1nc2ccccc2c(=O)n1C)N1CCN(S(=O)(=O)c2cccc(Cl)c2)CC1 (stereo not drawn) [compound 61] | 10 to 25 | 25 to 100 | –
24 | COc1ccc(S(=O)(=O)N2CCN(C(C)c3nc(N4CCN(C)CC4)c4ccccc4n3)CC2)cc1 (stereo not drawn) [compound 345] | 25 to 60 | 25 to 100 | –

Row | Structure (SMILES) | EC50 [µM] | Emax (relative efficacy) [%] | % Efficacy (relative efficacy)
25 | CC(c1nc2ccccc2c(=O)n1C)N1CCN(S(=O)(=O)c2cccc3cccnc23)CC1 (stereo not drawn) [compound 276] | 25 to 60 | < 25 | –
26 | CC(NCCN)c1nc2ccccc2c(=O)n1C (stereo not drawn) [compound 181] | 25 to 60 | < 25 | –
27 | COc1ccc(S(=O)(=O)N2CCN(C(C)c3nc(N4CCN(C(C)=O)CC4)c4ccccc4n3)CC2)cc1 (stereo not drawn) [compound 369] | 25 to 60 | 25 to 100 | –
28 | CCOc1nc(C(C)N2CCN(S(=O)(=O)c3ccc(Br)cc3)CC2)nc2ccccc12 (stereo not drawn) [compound 228] | < 10 | > 100 | –
29 | CC(=O)NCCn1c(C(C)N2CCN(S(=O)(=O)c3ccc(Br)cc3)CC2)nc2ccccc2c1=O (stereo not drawn) [compound 287] | 25 to 60 | 25 to 100 | –
30 | CC(NCC1CCCCN1)c1nc2ccccc2c(=O)n1C (stereo not drawn) [compound 183] | – | < 25 | –
31 | Cc1c(S(=O)(=O)N2CCN(C(C)c3nc4ccccc4c(=O)n3C)CC2)sc2ccc(F)cc12 (stereo not drawn) [compound 290] | 25 to 60 | 25 to 100 | –
32 | CC(c1nc(N(C)C)c2ccccc2n1)N1CCN(S(=O)(=O)c2ccc(Cl)cc2)CC1 (stereo not drawn) [compound 233] | 25 to 60 | 25 to 100 | –
33 | COc1ccc(S(=O)(=O)N2CCN(Cc3nc(OC4CCCC4)c4ccccc4n3)CC2)cc1 [compound 386] | < 10 | > 100 | –
34 | CC(c1nc2ccccc2c(=O)n1C)N1CCN(S(=O)(=O)c2ccc(-c3cc(C(F)(F)F)nn3C)s2)CC1 (stereo not drawn) [compound 258] | 25 to 60 | < 25 | –
35 | Cc1ccc(C(=O)N2CCN(C(C)c3cc4ccc(Cl)cc4c(=O)n3C)CC2)cc1 (stereo not drawn) [compound 58] | 10 to 25 | < 25 | –
36 | COc1ccc(S(=O)(=O)N2CCN(C(C)c3nc(OC4CCC5CC4C5)c4ccccc4n3)CC2)cc1 (stereo not drawn) [compound 400] | < 10 | > 100 | –
37 | CC(c1nc2ccc(Cl)cc2c(=O)n1C)N1CCN(S(=O)(=O)c2ccccc2)CC1 (stereo not drawn) [compound 71] | 10 to 25 | 25 to 100 | –
38 | CC(c1nc2ccccc2c(=O)n1C)N(CCNS(=O)(=O)c1ccc(Br)cc1)S(=O)(=O)c1ccc(Br)cc1 (stereo not drawn) [compound 199] | 25 to 60 | < 25 | –
39 | CC(c1nc2ccccc2c(=O)n1C)N1CCN(S(=O)(=O)c2ccc(C(=O)O)cc2)CC1 (stereo not drawn) [compound 240] | 25 to 60 | < 25 | –
40 | COc1ccc(S(=O)(=O)N2CCN(C3(c4nc(N5CCCCC5)c5ccccc5n4)CC3)CC2)cc1 [compound 387] | < 10 | > 100 | –
41 | CC(=O)NCCn1c(C(C)N2CCN(S(=O)(=O)c3ccc(Cl)cc3)CC2)nc2ccccc2c1=O (stereo not drawn) [compound 289] | 25 to 60 | 25 to 100 | –
42 | COc1ccc(S(=O)(=O)N2CCN(C(C)c3nc(OC)c4ccccc4n3)CC2)cc1 (stereo not drawn) [compound 187] | 25 to 60 | 25 to 100 | –
43 | CC(c1nc2ccccc2c(=O)n1C)N1CCN(S(=O)(=O)c2ccc(-c3cc(C(F)(F)F)on3)s2)CC1 (stereo not drawn) [compound 261] | 25 to 60 | 25 to 100 | –
44 | Cc1ccc(S(=O)(=O)N2CCN(C(C)c3nc4ccc(S(C)(=O)=O)cc4c(=O)n3C)CC2)cc1 (stereo not drawn) [compound 139] | 10 to 25 | 25 to 100 | –
45 | COc1ccc(S(=O)(=O)N2CCC(NC(C)c3nc4ccccc4c(=O)n3C)CC2)cc1 (stereo not drawn) [compound 208] | 25 to 60 | 25 to 100 | –
46 | CCc1ccc(S(=O)(=O)N2CCN(C(C)c3nc4ccccc4c(=O)n3C)CC2)cc1 (stereo not drawn) [compound 329] | < 10 | 25 to 100 | –
47 | COc1ccc(S(=O)(=O)N2CCN(C(C)c3ncc(C(=O)N(C)C)c(N4CCCCC4)n3)CC2)cc1 (stereo not drawn) [compound 358] | 25 to 60 | 25 to 100 | –
